# Laboratory results from patent publication US10729815B2, “Combined treatment for nerve injuries” (Ramot at Tel-Aviv University Ltd., priority 2016, dated 2020).
# Experiments:
# [1] = test system: astrocytes cultures of human brain cells, derived from astrocytoma, U-87 MG; assay: In-vitro effect of anti-gliotic agents on 35S-GAG accumulation in activated astrocytes; type: cell-based; details: 48 h
# Description: (§1) Cell culture—Astrocytes cultures of human brain cells, derived from astrocytoma, U-87 MG (ATCC® HTB-14™, American Type Culture Collection, Rockville, Md., USA) were cultured in growth medium [10% Fetal Bovine Serum (FBS) and 1% Penicillin-Streptomycin solution (PS) in Minimum Essential Medium (MEM)]. […] The cell suspension (5×10^5 cells/well) was seeded into a 6-well plate (500 μl/well) containing 1.5 ml/well of assay medium, incubated for 24±1 hours at […], 5% CO2, and then examined microscopically. Following, at 90% cell confluence, the plates were treated according to the following groups:
# (§2) The anti-gliotic agents were added as follows: Chondroitinase ABC (0.2 U/ml), Collagenase (2 mg, 50 μl), β-D-Xyloside (2.5 mM, 20 μl), MMPs-3 (0.5 μg, 20 μl), Anti TGFβ 1,2&3 (10 μg, 20 μl), Mitomycin C (50 μg, 25 μl), ACE human recombinant (0.5 μg, 25 μl) and Anti-Nogo A (5 U, 25 μl).
# Astrocytes activation causes glycosaminoglycans (GAGs) accumulation in cultures, both intracellularly, pericellularly and extracellularly. Therefore, GAGs can serve as a tracer for either formation or elimination of the scar barrier.
# [2] = test system: astrocytes cultures of human brain cells, derived from astrocytoma, U-87 MG; assay: In-vitro effect of anti-gliotic agents on astrocytes survival (cell counting); type: cell-based; details: 48 h
# Description: as §1, §2
# [3] = activated with Bt2-cAMP + theophylline plus anti-gliotic agent
# [4] = activated with Bt2-cAMP + theophylline plus anti-gliotic agent, values multiplied 6 times (normalized to vital cell survivors)
# [5] = astrocytes activated with Bt2-cAMP 1 mM + theophylline 0.25 mM plus the anti-gliotic agent
Molecule,"Isolated 35S-GAGs Average + SD ([1]; activator(s) only, theophylline well multiplied 6 times (normalized to vital cell survivors))","% of cells (cell percentage in astrocyte cultures relative to untreated cultures) ([2]; activator(s) only, no anti-gliotic agent, Bt2-cAMP 1 mM, theophylline 0.25 mM) [%]","% of Isolated 35S-GAGs (relative to the theophylline control) [1, 3] [%]","Isolated 35S-GAGs Average + SD [1, 4]","% of cells (cell percentage in astrocyte cultures relative to untreated cultures) [2, 5] [%]"
"CCCC(=O)Nc1ncnc2c1ncn2[C@@H]1O[C@@H]2COP(=O)([O-])O[C@H]2[C@H]1OC(=O)CCC.[Na+] [Bt2-cAMP, N6,2′-O-Dibutyryladenosine 3′,5′-cyclic monophosphate, sodium salt, reference compound]","34,872 + 2,946",32.8,–,–,–
"O=[N+]([O-])c1ccc(O[C@@H]2OC[C@@H](O)[C@H](O)[C@H]2O)cc1 [β-D-Xyloside, 4-Nitrophenyl β-D-xylopyranoside, reference compound]",–,–,78.5,"61,016 + 21,506",54.7
Chondroitinase ABC,–,–,5.5,"4,299 + 939",33.1
Collagenase,–,–,66.1,"51,371 + 10,556",39.1
"MMPs-3: MMP-3-Matrix Metalloproteinase, human Stromlysin STR1 (Sigma SRP 7783)",–,–,82.3,"63,941 + 11,374",23.2
"ACE human recombinant: Angiotensin Converting Enzyme Human recombinant (Biotest 929-ZN) (protein, UniProt P12821 30-1306, looked up) Angiotensin-converting enzyme: LDPGLQPGNFSADEAGAQLFAQSYNSSAEQVLFQSVAASWAHDTNITAENARRQEEAALLSQEFAEAWGQKAKELYEPIWQNFTDPQLRRIIGAVRTLGSANLPLAKRQQYNALLSNMSRIYSTAKVCLPNKTATCWSLDPDLTNILASSRSYAMLLFAWEGWHNAAGIPLKPLYEDFTALSNEAYKQDGFTDTGAYWRSWYNSPTFEDDLEHLYQQLEPLYLNLHAFVRRALHRRYGDRYINLRGPIPAHLLGDMWAQSWENIYDMVVPFPDKPNLDVTSTMLQQGWNATHMFRVAEEFFTSLELSPMPPEFWEGSMLEKPADGREVVCHASAWDFYNRKDFRIKQCTRVTMDQLSTVHHEMGHIQYYLQYKDLPVSLRRGANPGFHEAIGDVLALSVSTPEHLHKIGLLDRVTNDTESDINYLLKMALEKIAFLPFGYLVDQWRWGVFSGRTPPSRYNFDWWYLRTKYQGICPPVTRNETHFDAGAKFHVPNVTPYIRYFVSFVLQFQFHEALCKEAGYEGPLHQCDIYRSTKAGAKLRKVLQAGSSRPWQEVLKDMVGLDALDAQPLLKYFQPVTQWLQEQNQQNGEVLGWPEYQWHPPLPDNYPEGIDLVTDEAEASKFVEEYDRTSQVVWNEYAEANWNYNTNITTETSKILLQKNMQIANHTLKYGTQARKFDVNQLQNTTIKRIIKKVQDLERAALPAQELEEYNKILLDMETTYSVATVCHPNGSCLQLEPDLTNVMATSRKYEDLLWAWEGWRDKAGRAILQFYPKYVELINQAARLNGYVDAGDSWRSMYETPSLEQDLERLFQELQPLYLNLHAYVRRALHRHYGAQHINLEGPIPAHLLGNMWAQTWSNIYDLVVPFPSAPSMDTTEAMLKQGWTPRRMFKEADDFFTSLGLLPVPPEFWNKSMLEKPTDGREVVCHASAWDFYNGKDFRIKQCTTVNLEDLVVAHHEMGHIQYFMQYKDLPVALREGANPGFHEAIGDVLALSVSTPKHLHSLNLLSSEGGSDEHDINFLMKMALDKIAFIPFSYLVDQWRWRVFDGSITKENYNQEWWSLRLKYQGLCPPVPRTQGDFDPGAKFHIPSSVPYIRYFVSFIIQFQFHEALCQAAGHTGPLHKCDIYQSKEAGQRLATAMKLGFSRPWPEAMQLITGQPNMSASAMLSYFKPLLDWLRTENELHGEKLGWPQYNWTPNSARSEGPLPDSGRVSFLGLDLDAQQARVGQWLLLFLGIALLVATLGLSQRLFSIRHRSLHRHSHGPQFGSEVELRHS",–,–,22.9,"17,814 + 2,201",70.4
